Data set [1] in a line: BET specific surface area, nitrogen adsorption. Type of data set: physicochemical. The note with it: N2 adsorption at 77.3 K, eleven point method, P/P0 about 0.05 to about 0.3, degassed at 25° C. for 960 minutes. The source says:
In addition to the techniques described herein, specific surface can also be used to characterize the free-plates of the present invention. Accordingly, the specific surface area values disclosed in the present invention have been obtained by means of a specific surface area analysis technique based on the BET (Brunauer, Emmett and Teller) theory, which is a well-accepted theory known in the art for the calculation of surface areas of solids by means of measuring their physical adsorption of gas molecules (see: Brunauer, S.; Emmett, P. H.; and Teller, E.; J. Am. Chem. Soc., 1938, 60, 309). In particular, the specific surface area values measured in the present invention have been calculated from the BET surface area plot obtained by measuring the quantity of nitrogen gas molecules adsorbed by a weighted amount of solid at different relative pressures (P/P0) within the range 0.05-0.3 (P/P0), at 77.3 K. The measurement of the adsorption of gas molecules was carried out by means of a Micromeritics™ TriStar II BET surface analyzer having the characteristics as set out below in Example 14. Namely, nitrogen gas was used for the adsorption measurement. The sample for each analysis was degassed at 25° C. for 960 minutes under vacuum (i.e., 100 mm/Hg). The determination of the adsorption of nitrogen was measured at 77.3 K at eleven relative pressures (P/P0) sufficiently dispersed within the range of about 0.05 to about 0.30 (i.e. eleven absolute pressures in the range of about 36 mm Hg to about 223 mm Hg relative to the saturated pressure at the time of measurement that ranged from about 738 mmHg to about 743 mmHg).
In general, the specific surface areas for Lots A1-A9 (plates) and H1-H6 (spherulites) were determined by physical adsorption of nitrogen gas on the surface of the sample from each lot using the well-established technique based on the Brunauer, Emmett, and Teller theory.
The BET surface areas for the samples were measured by Micromeritics Pharmaceutical Services using a Micromeritics™ TriStar II BET surface area analyzer (MicroActive for TriStar II Plus 2.02 Software™). The samples were degassed at 25° C. for 960 minutes under vacuum (i.e., 100 mm/Hg). The determination of the adsorption of N2 at 77.3 K was measured using a BET surface area eleven point method with relative pressures in the range of about 0.05 to about 0.3 (P/P0) for a weighed amount of each sample, see TABLE M1, TABLE M2, and TABLE N below. The analysis was performed per ISO9277.

The nature of data set [2]: Dynamic moisture-sorption (DMS) analysis. The note with it: DMS at 25° C. The data set is classed as physicochemical. The method, then:
A dynamic moisture-sorption (DMS) analysis was performed on representative Lot A2 (see, Example 3, TABLE A) of the L-arginine salt of Compound 1 having the plate morphology and representative Lot H2 (prepared in a similar manner as described in Example 8, Method 2 Steps G and H in WO2011/094008; and described in TABLE K, Example 8 herein) of the L-arginine salt of Compound 1 having the spherulite morphology. […] By comparison the L-arginine salt of Compound 1 (spherulite morphology) gained between 0.5% weight (adsorption cycle) and 0.7% weight (desorption cycle) at 90% RH and 25° C. […] DMS analysis was performed using a TA Instruments Q5000 SA (EQ2418). Instrument performance was verified in-house. Samples were added to a tared sample holder on the Q5000 SA balance. The sample was dried at 40° C. and then analyzed at 25° C. with an adsorption phase from 30% RH to 90% RH and a desorption phase from 90% RH to 10% RH.

In data set [3] the test system is lymphocyte. The note with it: mouse; reflects total plasma concentration; read-out: calculated lymphocyte lowering IC50; cited from earlier work.
Data set [4] relates to experimental autoimmune encephalomyelitis (EAE) model. The note with it: cited from earlier work.
For data set [5] the following is noted: rat; cited from earlier work.
Data set [6] has as its system collagen induced arthritis (CIA) model. The conditions noted are these: cited from earlier work.
The subject of data set [7] is lymphocyte. The conditions noted are these: dog; reflects total plasma concentration; read-out: calculated lymphocyte lowering IC50; cited from earlier work.
The target in data set [8] is S1P2 (Homo sapiens, UniProt O95136). The conditions noted are these: read-out: EC50 β-arrestin; cited from earlier work.
Sequence of S1P2 (O95136 whole entry, species assumed): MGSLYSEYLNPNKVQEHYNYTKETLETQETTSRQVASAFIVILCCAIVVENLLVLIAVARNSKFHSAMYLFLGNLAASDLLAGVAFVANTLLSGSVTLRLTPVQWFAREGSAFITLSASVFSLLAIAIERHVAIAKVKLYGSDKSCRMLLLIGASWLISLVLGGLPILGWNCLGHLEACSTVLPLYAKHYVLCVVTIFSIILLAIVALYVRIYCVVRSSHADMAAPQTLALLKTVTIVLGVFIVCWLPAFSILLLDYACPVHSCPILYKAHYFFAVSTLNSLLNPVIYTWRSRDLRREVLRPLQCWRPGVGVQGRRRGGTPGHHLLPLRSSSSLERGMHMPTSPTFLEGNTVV
Data set [9] deals with lymphocyte. The conditions noted are these: monkey; reflects total plasma concentration; read-out: calculated lymphocyte lowering IC50; cited from earlier work.
Data set [10] has as its system lymphocyte. The note with it: rat; reflects total plasma concentration; read-out: calculated lymphocyte lowering IC50; cited from earlier work.
The conditions of data set [11]: human; cited from earlier work.
The target in data set [12] is S1P3 (Homo sapiens, UniProt Q99500). The note with it: read-out: EC50 β-arrestin; cited from earlier work.
Sequence of S1P3 (Q99500 whole entry, species assumed): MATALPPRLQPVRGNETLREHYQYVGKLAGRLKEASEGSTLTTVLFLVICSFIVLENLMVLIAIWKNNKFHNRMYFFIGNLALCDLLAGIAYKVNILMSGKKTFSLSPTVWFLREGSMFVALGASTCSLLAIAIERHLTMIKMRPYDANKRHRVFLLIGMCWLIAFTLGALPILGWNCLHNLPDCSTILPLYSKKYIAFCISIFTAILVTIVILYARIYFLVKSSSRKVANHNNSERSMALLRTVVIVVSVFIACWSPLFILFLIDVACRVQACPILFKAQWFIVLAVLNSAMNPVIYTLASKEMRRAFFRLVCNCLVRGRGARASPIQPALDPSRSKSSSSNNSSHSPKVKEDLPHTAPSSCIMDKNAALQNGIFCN
Data set [13] concerns lymphocyte count. The data set is described as follows: Phase 1b clinical trial, lymphocyte count lowering in blood. Type of data set: in vivo, healthy volunteers. The method, then:
The L-arginine salt of Compound 1 was selected for clinical evaluation. A randomized, double-blind, placebo-controlled Phase 1b clinical trial was conducted to evaluate the safety, tolerability, pharmacodynamics, and pharmacokinetics of multiple-ascending doses of the L-arginine salt of Compound 1 in five different dosing cohorts. A total of 50 healthy volunteers received the L-arginine salt of Compound 1 and 10 healthy volunteers received placebo for 21 days.

Counter-ions that a name gives are not always drawn. Like-named read-outs stand apart in the source and are kept apart here.

Turning to `O=C(O)C[C@H]1CCc2c1[nH]c1ccc(OCc3ccc(C4CCCC4)c(C(F)(F)F)c3)cc21` [Lot A7], the “BET Surface Area” value in [1] (listed as A7) was determined as 1.9 m^2/g.

For the compound `O=C(O)C[C@H]1CCc2c1[nH]c1ccc(OCc3ccc(C4CCCC4)c(C(F)(F)F)c3)cc21` [Lot A5], in data set [1] (listed as A5), the “BET Surface Area” value was determined as 0.8 m^2/g. In the case of `O=C(O)C[C@H]1CCc2c1[nH]c1ccc(OCc3ccc(C4CCCC4)c(C(F)(F)F)c3)cc21` [Lot H2], the “weight gain at 90% RH (adsorption cycle)” value in data set [2] (90% RH, adsorption cycle) turned out to be 0.5 % weight. Moreover, the “weight gain at 90% RH (desorption cycle)” value in [2] (90% RH, desorption cycle) was found to be 0.7 % weight. The “BET Surface Area” value in data set [1] (listed as H2) stood at 13.5 m^2/g.

Take `O=C(O)C[C@H]1CCc2c1[nH]c1ccc(OCc3ccc(C4CCCC4)c(C(F)(F)F)c3)cc21` [Lot A2]: the hygroscopicity entry in [2] is reported as “non-hygroscopic”. Also, the “weight gain at 90% RH” value in [2] (90% RH) was found to be 0.2 % weight. Also, the “BET Surface Area” value in data set [1] (listed as A2) stood at 0.7 m^2/g. Regarding `O=C(O)C[C@H]1CCc2c1[nH]c1ccc(OCc3ccc(C4CCCC4)c(C(F)(F)F)c3)cc21` [Lot H5], the “BET Surface Area” value in data set [1] (listed as H5) is 10.9 m^2/g.

Take `O=C(O)C[C@H]1CCc2c1[nH]c1ccc(OCc3ccc(C4CCCC4)c(C(F)(F)F)c3)cc21` [Lot A4]: in data set [1] (listed as A4), the “BET Surface Area” value worked out at 1.0 m^2/g. `O=C(O)C[C@H]1CCc2c1[nH]c1ccc(OCc3ccc(C4CCCC4)c(C(F)(F)F)c3)cc21` [Lot H4]: in data set [1] (listed as H4), the “BET Surface Area” value came out at 12.0 m^2/g. For the compound `O=C(O)C[C@H]1CCc2c1[nH]c1ccc(OCc3ccc(C4CCCC4)c(C(F)(F)F)c3)cc21` [Lot H6], in [1] (listed as H6), the “BET Surface Area” value amounted to 12.3 m^2/g. On to `O=C(O)C[C@H]1CCc2c1[nH]c1ccc(OCc3ccc(C4CCCC4)c(C(F)(F)F)c3)cc21` [Lot A3], for which the “BET Surface Area” value in data set [1] (listed as A3) turned out to be 1.5 m^2/g. Regarding `O=C(O)C[C@H]1CCc2c1[nH]c1ccc(OCc3ccc(C4CCCC4)c(C(F)(F)F)c3)cc21` [Lot A9], the “BET Surface Area” value in [1] (listed as A9) is recorded as 3.1 m^2/g.

Take `O=C(O)C[C@H]1CCc2c1[nH]c1ccc(OCc3ccc(C4CCCC4)c(C(F)(F)F)c3)cc21` [Compound 1, (R)-2-(7-(4-cyclopentyl-3-(trifluoromethyl)benzyloxy)-1,2,3,4-tetrahydrocyclopenta[b]indol-3-yl)acetic acid]: the IC50 in data set [3] is 101 nM; in data set [7], 58 nM; in data set [9] it was 98 nM; in [10], 51 nM. Moreover, in data set [4] (administered day 18 to day 37, all animals with severe disease at start, similar to fingolimod), the “EAE disease, therapeutic administration” value is given as “reverse the disease relative to vehicle”. Moreover, the “EAE disease onset and severity, prophylactic” value in data set [4] (prophylactic dosing, discontinued at day 25, relative to vehicle) is “prevented the onset and severity of disease relative to vehicle up to day 25”. Also, the protein bound is given as 98.0% in [5] and 97.8% in data set [11]. The “histological parameters in knees and ankles” value in data set [6] (CIA rats) was “Improvement in histological parameters in the knees and ankles”. In addition, in data set [6] (prophylactic daily oral dose, day 17, similar to fingolimod or methotrexate), the ankle diameters entry is recorded as “significant reduction in ankle diameters”. In addition, the EC50 in [8] and in [12] was above 10000 nM throughout.

For the compound `O=C(O)C[C@H]1CCc2c1[nH]c1ccc(OCc3ccc(C4CCCC4)c(C(F)(F)F)c3)cc21` [Lot A1], the “BET Surface Area” value in data set [1] (listed as A1) is given as 0.7 m^2/g.

Regarding `O=C(O)C[C@H]1CCc2c1[nH]c1ccc(OCc3ccc(C4CCCC4)c(C(F)(F)F)c3)cc21` [L-arginine salt of Compound 1, L-arginine salt of (R)-2-(7-(4-cyclopentyl-3-(trifluoromethyl)benzyloxy)-1,2,3,4-tetrahydrocyclo-penta[b]indol-3-yl)acetic acid], the “lymphocyte count, mean decrease from baseline” value in data set [13] (multiple-ascending doses for 21 days, dose-dependent) is listed as “up to 69%”. In data set [13] (on average, after conclusion of dosing), the “lymphocyte count recovery to baseline” value was “within one week”. On to `O=C(O)C[C@H]1CCc2c1[nH]c1ccc(OCc3ccc(C4CCCC4)c(C(F)(F)F)c3)cc21` [Lot H1], for which the “BET Surface Area” value in data set [1] (listed as H1) came to 10.0 m^2/g.

As to `O=C(O)C[C@H]1CCc2c1[nH]c1ccc(OCc3ccc(C4CCCC4)c(C(F)(F)F)c3)cc21` [Lot A6], the “BET Surface Area” value in data set [1] (listed as A6) worked out at 2.4 m^2/g. Regarding `O=C(O)C[C@H]1CCc2c1[nH]c1ccc(OCc3ccc(C4CCCC4)c(C(F)(F)F)c3)cc21` [Lot A8], in [1] (listed as A8), the “BET Surface Area” value is recorded as 3.0 m^2/g. As for `O=C(O)C[C@H]1CCc2c1[nH]c1ccc(OCc3ccc(C4CCCC4)c(C(F)(F)F)c3)cc21` [Lot H3], the “BET Surface Area” value in [1] (listed as H3) came out at 11.8 m^2/g.

In general, IC50 refers to the midpoint of a concentration-inhibition curve. In general, EC50 refers to the concentration giving half of the maximal effect.

Values taken from US12378198B2, “Crystalline l-arginine salt of (R)-2-(7-(4-cyclopentyl-3-(trifluoromethyl)benzyloxy)-1,2,3,4-tetrahydrocyclo-penta [b]indol-3-yl)acetic acid(compound1) for use in SIPI receptor-associated disorders” (Arena Pharmaceuticals, Inc., priority 2015, dated 2025).
